What was measured:
[1] = tested on: T. cruzi (Y strain) in male Swiss mice; test: Mouse model of acute T. cruzi infection (Y strain); format: in vivo; conditions: for parasite DNA amplification in blood (qPCR): 77 dpi, heart puncture, derivatives 25 mg/kg/day, Bz 100 mg/kg/day, 5 days oral, limit of detection 0.47 eq par/mL; for protection against loss of weight induced by acute infection: 25 mg/kg/day oral, 5 days; for reduction of parasitemia: gavage once a day, 5 consecutive days, 25 mg/kg/day, from parasitemia onset, p < 0.05
Procedure: Thus, a proof-of-concept study was performed in T. cruzi-infected mice. The infected animals were treated (gavage, once a day) for 5 consecutive days with the derivatives (25 mg/kg/day) or Bz (100 mg/kg/day), starting drug administration at the parasitemia onset, usually on day 5 dpi, following doses and protocols already established for the other nucleoside derivatives.
The synthesis and characterization of FH11706, FH10714 [46] and FH8513 [19] were previously reported. Benznidazole (Bz) was purchased from Laboratório Farmacêutico do Estado de Pernambuco (Brazil). […] For in vivo assays, Bz was formulated using 3% Tween 80 in distilled water and the nucleoside analogues in 10% (v/v) EtOH, with 1.1 mM aqueous citrate buffer pH 3.2 and dosed according to animal body weight.
Male Swiss Webster mice (18−20 g; 4−5 weeks of age) were obtained from the Institute of Sciences and Technologies in Biomodels (ICTB-FIOCRUZ), housed with a maximum of 5 animals per cage and kept in a specific pathogen-free (SPF) room at 20−24 °C under a 12 h light and 12 h dark cycle. All animals received sterilized water and food ad libitum. The animals were acclimatized for 7 days before the experiments. To detect possible toxic events, nucleoside analogues and Bz were orally given to non-infected Swiss male mice (n = 2) for 5 consecutive days, with a fixed dose of 50 mg/kg (0.1 mL). On day 5, all animals were euthanized to inspect toxic and subtoxic symptoms. For a proof-of-concept study, animals were infected by i.p. administration of 10^4 bloodstream trypomastigotes (Y strain), and drug administration started at the onset of parasitemia (6 dpi), only using mice with detectable parasitemia. Control mice groups were age-matched and housed under identical conditions. The following experimental groups were used (3 mice per group): untreated (infected vehicle-treated control) and treated (infected and treated with derivatives or with benznidazole). The derivatives and Bz were given orally (gavage) for five consecutive days at 25 mg/kg and 100 mg/kg, respectively, once a day. Parasitemia levels in T. cruzi assays were individually checked by light microscopic counting of parasites in 5 μL of blood, as described. For blood qPCR analysis, 500 µL of blood was diluted in a 1:2 volume of guanidine solution and heated for 60 s in boiling water, followed by DNA purification using High Pure PCR Template Preparation Kit (Roche Applied Science) and quantitative real-time multiplex PCR assays. TaqMan probes were used for quantification of both T. cruzi satellite nuclear DNA and internal amplification control (IAC), as described in Duffy et al. (2013), using the following primer and prober sets: Cruzi1 5′-[…]-3′ (750 nM), Cruzi2 5′-[…]-3′ (750 nM), Cruzi3 FAM-5′-CACACACTGGACACCAA-3′-NFQ-MGB (50 nM), IAC Fw 5′-[…]-3′ (100 nM), IAC Rv 5′-[…]-3′ (100 nM) and IAC Tq 5′-VIC-AGCATCTGTTCTTGAAGGT-NFQ-MGB-3′ (50 nM). The cycling conditions were a first step of 10 min at 95 °C, followed by 40 cycles at 95 °C for 15 s and 58 °C for 1 min. The amplifications were carried out in a Quantstudio 3 real-time PCR system (Applied Biosystems), with the threshold set at 0.02 in all runs. Standard curves were constructed for absolute quantification through the serial dilution of total DNA, ranging from 10^5 parasite equivalent to 1 parasite equivalent per mL of blood, obtained with a negative blood sample in guanidine-EDTA. Parasite load was expressed as equivalent of parasite DNA per mL of blood.

[2] = tested on: promastigotes of Lmex^ΔNT1+TcrNT2; test: Resazurin-based assay on Cas9^ΔNT1+TcrNT2 promastigotes; format: cell-based, Leishmania mexicana; conditions: for EC50: Leishmania mexicana, read-out: Lmex^ΔNT1+TcrNT2 EC50 (μM)
Procedure: Bloodstream trypomastigotes of the Y strain (DTU II) were obtained by cardiac puncture of infected Swiss Webster mice on the parasitemia peak to perform drug sensitivity assays. Trypomastigote forms of the Tulahuen-β gal strain were collected from the supernatant of previously infected L929 cell cultures (host/parasite cell ratio 10:1). The intracellular forms T. cruzi were studied by the infection of L929 and H9C2 (2D and 3D) cell cultures infected for 48 and 24 h with trypomastigotes of Tulahuen-β gal and Y strains, respectively. The Leishmania mexicana-Cas9 T7 strain (LmexCas9) was derived from L. mexicana WT promastigotes by expression of the Streptococcus pyogenes Cas9 nuclease gene ‘Cas9′ and maintained on 32 μg/mL hygromycin [51]. This strain and the derived strains Cas9^ΔNT1 and Cas9^ΔNT1+TcrNT2 were cultured in HOMEM medium supplemented with 10% of FBS and 1% Penicillin-Streptomycin antibiotic in unvented flasks at 25 °C [52]. The Cas9^ΔNT1 strain is identical to Cas9 except that the LmexNT1.1/NT1.2 locus encoding the L. mexicana adenosine/ pyrimidine transporters was excised using Cas9 [17, 40]. Cas9^ΔNT1+TcrNT2 is the further modification of that strain by the expression of the T. cruzi nucleoside transporter 2 (TcrNT2) gene in it, using the vector pNUS-HcN [53]. Appropriate antibiotics were added for the selection and maintenance of transfectants.
The EC50 values for nucleoside analogues against Leishmania mexicana promastigotes of the Cas9, Cas9^ΔNT1 and Cas9^ΔNT1+TcrNT2 strains used a resazurin-based assay, as described. Briefly, the assays were performed in standard HOMEM medium and culture conditions, in white opaque 96-well plates. For each test compound (stored as a 40 mM stock solution in 100% DMSO at −20 °C), a doubling dilution was performed over 2 rows of the plate, keeping the last well free as no-drug control with HOMEM only (23 doubling dilutions; highest concentration 100 µM). To each well, 100 µL of HOMEM containing 2 × 10^5 cells of the appropriate L. mexicana line was added, and the plates incubated for 72 h at 25 °C, followed by the addition of 20 µL of resazurin solution and further incubation for 48 h. Fluorescence was read on a FLUOstar OPTIMA plate reader (BMG Labtech, Germany), at an excitation wavelength of 544 nm and an emission wavelength of 620 nm. The EC50 values were determined by the GraphPad Prism 8.0 software using an equation for a sigmoid curve with variable slope. Pentamidine was used as positive control, and every experiment was independently performed at least 3 times independently.

| Structure (SMILES) | parasite DNA amplification in blood (qPCR) [1] [eq par/mL] | protection against loss of weight induced by acute infection [1] | reduction of parasitemia [1] [%] | sterile (parasitological) cure in mice ([1]; oral once a day for 5 days (derivatives 25 mg/kg), blood qPCR) | EC50 [2] [µM] | Lmex^ΔNT1+TcrNT2 Sensitization (fold) ([2]; ratio of the EC50 values of the Cas9^ΔNT1 and Cas9^ΔNT1+TcrNT2 strains) |
| --- | --- | --- | --- | --- | --- | --- |
| O=C(Cn1ccnc1[N+](=O)[O-])NCc1ccccc1 [Bz, Benznidazole, reference compound] | 0.187 ± 0.082 | – | – | – | – | – |
| Nc1ncnc2c1c(-c1ccc(F)c(F)c1)cn2[C@@H]1O[C@H](CO)[C@@H](O)[C@H]1O [FH11706, 7-(3,4-Difluorophenyl)tubercidin] | 0.038 ± 0.016 | strongly protected | 98.4 | – | – | – |
| Nc1ncnc2c1c(-c1ccc(Cl)c(F)c1)cn2[C@@H]1O[C@H](CO)[C@@H](O)[C@H]1O [FH10714, 7-(3-fluoro,4-chlorophenyl)tubercidin] | 0.046 ± 0.038 | – | 99.58 | incapable to promote a parasitological cure | > 100 | – |
| Nc1ncnc2c1c(-c1ccc(Cl)c(Cl)c1)cn2[C@@H]1O[C@H](CO)C[C@H]1O [FH8513, 7-(3,4-dichlorophenyl)-3′-deoxytubercidin] | 0.287 ± 0.017 | strongly protected | 99.48 | – | 31.1 ± 0.5 | 3.2 |

From publication PMC9695592, “Phenotypic Evaluation of Nucleoside Analogues against Trypanosoma cruzi Infection: In Vitro and In Vivo Approaches” (Molecules, 2022)
